Series [1] can be described thus: clinical. As to conditions: human, in vivo; for Cmax: Mean.
Series [2] concerns humans. As to the kind of experiment: Clinical experience with sublingual apomorphine tablets in humans (efficacy, side effects).
[3] abbreviates: humans, 2 to 4 mg sublingual tablets, clinical experience.

Usually AUC(0-inf) stands for the area under the concentration-time curve extrapolated to infinity. Lower therefore signals less exposure. Broadly, the Tmax is the time at which the peak concentration occurs. For orientation: Cmax means the highest concentration seen after dosing. `CN1CCc2cccc3c2[C@H]1Cc1ccc(O)c(O)c1-3` [Apomorphine, (R)-5,6,6a,7-tetrahydro-6-methyl-4H-dibenzo-[de,g]quinoline-10,11-diol]: the AUC(0-inf) worked out at 3.39 ng·h/mL in series [1] (sc, 1 mg); 1.23 ng·h/mL in series [1] (male, 2 mg); 2.37 ng·h/mL in series [1] (male, 4 mg); 2.92 ng·h/mL in series [1] (male, 5 mg); 3.6 ng·h/mL in series [1] (male, 6 mg). Besides, the Tmax was determined as 20.4 min in series [1] (sc, 1 mg); 44.4 min in series [1] (male, 2 mg); 43.2 min in series [1] (male, 4 mg); 40.8 min in series [1] (male, 5 mg); 39.6 min in series [1] (male, 6 mg). For the same molecule, the Cmax was 3.22 ng/mL in series [1] (sc, 1 mg); around 0.7 ng/mL in series [1] (male, 2 mg); around 1.25 ng/mL in series [1] (male, 4 mg); around 1.7 ng/mL in series [1] (male, 5 mg); around 1.91 ng/mL in series [1] (male, 6 mg). The “cmax, Mean” value is 0.70 ng/mL in series [1] (male, 2 mg); 1.25 ng/mL in series [1] (male, 4 mg); 1.70 ng/mL in series [1] (male, 5 mg); 1.91 ng/mL in series [1] (male, 6 mg). The incidence of emesis in series [2] (setting [3]) turned out to be 2%. Also, the incidence of nausea entry in series [2] (setting [3]) was “about 13%”. In series [2] (up to 8 mg of apomorphine tablets), the tolerability in humans entry is given as “well tolerated”. Moreover, in series [2] (up to a 6 mg dose via sublingual tablet), the side-effects in humans entry was “minimal side-effects”. In addition, the efficacy in humans entry in series [2] (up to a 6 mg dose via sublingual tablet, sexual dysfunction) is recorded as “good efficacy”.

For the origin of these results see patent US20020006933A1 (TAP Holdings, Inc., priority 2000, published 2002).
